Test results published in US9476050B2, “Combination therapy” (TURUN YLIOPISTO, priority 2011, dated 2016).
Entries after “also recorded” stand apart in the source; their conditions may differ. *: point of attachment. Cbz = O=C(OCc1ccccc1)*; CH2F = FC*

What was measured:
Assay type in all cases: cell-based, human
T98G glioblastoma cells [1] = experiment: Apoptosis assay by sub-G0/G1 fraction estimation (apoptotic nuclear fragmentation, PI staining, FACS); conditions: for Potentiation % (apoptotic nuclear fragmentation): T98G transfected with PME-1 specific dsRNA; for level of apoptosis in PME-1 depleted cells: PME-1 siRNA 48 hrs, then drug 24 hrs; for sensitization to STS mediated apoptosis: siRNA or chemical PP2A activator followed by STS 24 hrs; for reversal of PME-1 siRNA and STS mediated apoptosis: agent added to, or siRNA co-transfected with, PME-1 siRNA plus STS
Protocol: The percentage of the sub-G0/G1 fraction containing fragmented nuclei stained with Propidium iodide (P1) was taken as a measure of apoptotic cells. 3.5-4×10^4 cells were plated in 24-well plates, transfected with siRNA for 48 hrs, and then treated with indicated concentration of test compounds in fresh media. After 24 hrs of treatment, both floating and adherent cells were harvested by centrifugation. Cell pellets were resuspended in 400 μl of hypotonic PI buffer, containing 40 mM Tri-sodium citrate (Merck), 0.3% Triton X-100 (Sigma-Aldrich) and 50 μg/ml Propidium iodide (Sigma-Aldrich) in PBS, and incubated at room temperature for 10 minutes in dark. The flow cytometric analysis of PI stained nuclei was performed and the recorded data was analyzed using a FACScan flow cytometer and software (Becton Dickinson) respectively.
In experiments using pan-caspase inhibitor, cells were kept in growth media containing 30 μM Z-VAD-FMK starting from 18 hrs after transfection till the PI staining. For treatment with PP2A activators FTY720, Sodium Selenate and Xylulose-5-phosphate, cells were kept in respective drugs throughout the experiment starting from 24 hrs after transfection. PP2A inhibitor, Okadaic acid, treatment was given for 24 hrs after 24 hrs of transfection.
The T98G cells transfected with siRNA for 48 hrs were given drug treatments for 24 hrs and were subsequently lysed, and their nuclei were stained using hypotonic propidium iodide buffer. The lysates were analysed for changes in the sub-G0/G1 fraction of fragmented nuclei by flow cytometry (FACS) (FIG. 1B). Condensation and fragmentation of nucleus is a key biochemical feature of apoptosis and sub-G0/G1 analysis has been widely used for detection of apoptosis (FEBS Lett., 1986, 194(2):347-50; Cytometry, 1991, 12(4):323-329; Nature Protocols, 2006, 1:1458-1461).

[2] = test system: U251MG glioblastoma cells; experiment: Colony formation assay, U251MG; conditions: scrambled or PME-1 siRNA, then drug 2 days; FIG. 5C
Description: (§1) Cells plated in very low density (4-6×10^3) in 6-well plates were allowed to grow for about 7 days until they form small colonies. These cells were then transfected with Scrambled or PME-1 siRNA using Lipofectamine RNAiMAX reagent (Invitrogen) according to the manufacturer's instructions. After 48 hrs, treatments were given with indicated concentration of chemical drugs for another 48 hrs. Cell colonies were washed with PBS, fixed with 3.7% formaldehyde and stained with 0.2% crystal violet solution (made in 10% ethanol) for 15 minutes at room temperature each. Excess stain was removed by repeated washings with PBS. Plates were dried and pictures were taken with Olympus SP-600UZ camera or Epson perfection V700 scanner and analysed with ImageJ.

U87MG glioblastoma cells = experiment: Colony formation assay, U87MG; conditions: scrambled or PME-1 siRNA, then drug 2 days; FIG. 5D
Description: as §1

T98G glioblastoma cells [3] = experiment: Cell viability assay, CellTiter-glo (CTG); conditions: PME-1 siRNA plus STS treatment
Protocol: Cell viability was determined by CellTiter-glo (CTG) assay which measures the cellular ATP levels as an indicator of metabolically active and viable cells. CTG reagent kit was purchased from Promega Corp. and assays were performed according to their recommendations. Assays were performed in white polystyrene 96-well plates (Nunc, Thermo Fisher Scientific Inc.) and luminescence was measured with Perkin Elmer Victor2 Plate Reader.

T98G glioblastoma cells [4] = experiment: Colony formation assay, T98G
Description: as §1
(§2) The efficacy of this treatment combination was then tested by colony formation assay in T98G glioblastoma cells and another glioblastoma cell line U118MG. For this experiment, these cells were grown in 6-well plates until the formation of small colonies which were then transfected with Scrambled or PME-1 siRNA for 48 hrs followed by treatment with STS at the indicated concentrations for another 48 hrs.

[5] = test system: U118MG glioblastoma cells; experiment: Colony formation assay, U118MG
Description: as §1, §2

[6] = test system: Caspase-3 and -7 activity; experiment: Caspase-Glo 3/7 assay in T98G cells; conditions: PME-1 depletion in combination with STS treatment
Protocol: Caspase-3 and -7 activity was measured by luminescence based method, which utilize a substrate containing Caspase-3 and -7 target peptide DEVD, named Caspase-Glo 3/7 Assay (Promega Corp.). Assays were performed in white polystyrene 96-well plates (Nunc, Thermo Fisher Scientific Inc.) according to manufacturer's instructions and luminescence was measured with Perkin Elmer Victor2 Plate Reader.

[7] = PME-1 depletion or STS treatment alone
[8] = combination of PME-1 siRNA 48 hrs and STS 48 hrs

## COC1C(CO)OC(n2c3c(Cl)cccc3c3c4c(c5c6cccc(Cl)c6[nH]c5c32)C(=O)NC4=O)C(O)C1O (stereo not drawn) [Rebeccamycin, 5h-indolo(2,3-a)pyrrolo(3,4-c)carbazole-5,7(6h)-dione,1,11-dichloro-12,13-dihy;dro-12-(4-o-methyl-beta-d-glucopyranosyl)]
T98G glioblastoma cells [1]; 5 μM drug
  Potentiation % (apoptotic nuclear fragmentation): 5-10%

## Cn1cc(C2=C(c3cn(CCCSC(=N)N)c4ccccc34)C(=O)NC2=O)c2ccccc21 [RO-31-8220]
T98G glioblastoma cells [1]; 5 μM drug
  Potentiation % (apoptotic nuclear fragmentation): 5-10%
T98G glioblastoma cells [1]; T98G
  level of apoptosis in PME-1 depleted cells: not active

## Sodium selenate
T98G glioblastoma cells [1]; T98G
  sensitization to STS mediated apoptosis: None of these chemical PP2A activators were able to sensitize

## O=C1NC(=O)c2c1c1c3ccccc3[nH]c1c1[nH]c3ccccc3c21 [Arcyriaflavin A, 12,13-Dihydro-5H-indolo[2,3-a] pyrrolo[3,4-c] carbazole-5,7(6H)-dione]
T98G glioblastoma cells [1]; 5 μM drug
  Potentiation % (apoptotic nuclear fragmentation): 5-10%

## CO[C@@H]1[C@H](N(C)C(=O)c2ccccc2)C[C@H]2O[C@]1(C)n1c3ccccc3c3c4c(c5c6ccccc6n2c5c31)C(=O)NC4 [PKC412, [9S-(9α,10β,11β, 13α)]-N-(2,3,10, 11,12,13-Hexahydro-10-methoxy-9-methyl-1-oxo-9,13-epoxy-1 H,9H-diindolo [1,2,3-gh:3′,2′,1′-lm]pyrrolo[3,4-j][1,7]benzodiazonin-11-yl)-N-methyl benzamide]
[2]
  cell killing activity with PME-1 depletion (colony formation): enhanced the cell killing activity
U87MG glioblastoma cells
  cell killing activity with PME-1 depletion (colony formation): enhanced the cell killing activity
T98G glioblastoma cells [1]; 500 nM drug
  Potentiation % (apoptotic nuclear fragmentation): 5-10%
T98G glioblastoma cells [1]; 5 μM drug
  Potentiation % (apoptotic nuclear fragmentation): 75-80%
T98G glioblastoma cells [1]; T98G
  level of apoptosis in PME-1 depleted cells: levels even higher than STS itself

## C[C@]12O[C@H](C[C@]1(O)CO)n1c3ccccc3c3c4c(c5c6ccccc6n2c5c31)CNC4=O [CEP-701, (9S,10S,12R)-2,3,9,10,11,12-Hexahydro-10-hydroxy-10-(hydroxymethyl)-9-methyl-9,12-epoxy-1H-diindolo[1,2,3-fg:3′,2′,1′-kl] pyrrolo[3,4-i][1, 6]benzodiazocin-1-one]
T98G glioblastoma cells [1]; 50 nM drug
  Potentiation % (apoptotic nuclear fragmentation): 2-5%
T98G glioblastoma cells [1]; 5 μM drug
  Potentiation % (apoptotic nuclear fragmentation): 75-80%
T98G glioblastoma cells [1]; T98G
  level of apoptosis in PME-1 depleted cells: levels even higher than STS itself

## COC(=O)[C@@]1(O)C[C@H]2O[C@]1(C)n1c3ccccc3c3c4c(c5c6ccccc6n2c5c31)C(=O)NC4 [K252a, (9S,10R,12R)-2,3,9,10,11,12-Hexahydro-10-hydroxy-9-methyl-1-oxo-9,12-epoxy-1H-diindolo[1,2,3-fg:3′,2′,1′kl] pyrrolo[3,4-i][1,6] benzodiazocine-10-carboxylic acid methyl ester]
[2]
  cell killing activity with PME-1 depletion (colony formation): enhanced the cell killing activity
U87MG glioblastoma cells
  cell killing activity with PME-1 depletion (colony formation): enhanced the cell killing activity
T98G glioblastoma cells [1]; 500 nM drug
  Potentiation % (apoptotic nuclear fragmentation): 10-15%
T98G glioblastoma cells [1]; 5 μM drug
  Potentiation % (apoptotic nuclear fragmentation): 80-90%
T98G glioblastoma cells [1]; T98G
  level of apoptosis in PME-1 depleted cells: levels even higher than STS itself

## CN[C@@H]1C[C@H]2O[C@@](C)([C@@H]1OC)n1c3ccccc3c3c4c(c5c6ccccc6n2c5c31)C(=O)NC4 [Staurosporine, [9S-(9α,10β,11β, 13α)]-2,3,10,11, 12,13-Hexahydro-10-methoxy-9-methyl-11-(methylamino)-9,13-epoxy-1H,9H-diindolo[1,2,3-gh:3′,2′,1′-lm] pyrrolo[3,4-j][1,7] benzodiazonin-1-one]
[2]
  cell killing activity with PME-1 depletion (colony formation): enhanced the cell killing activity
U87MG glioblastoma cells
  cell killing activity with PME-1 depletion (colony formation): enhanced the cell killing activity
T98G glioblastoma cells [3]
  cell viability: drastic decrease
T98G glioblastoma cells [4]; [7]
  colony formation ability: moderately reduced
T98G glioblastoma cells [4]; [8]
  colony formation ability: almost complete loss of colonies
[5]; [7]
  colony formation ability: moderately reduced
[5]; [8]
  colony formation ability: almost complete loss of colonies
T98G glioblastoma cells [1]; 50 nM drug
  Potentiation % (apoptotic nuclear fragmentation): 50-60%
T98G glioblastoma cells [1]; T98G
  level of apoptosis in PME-1 depleted cells: very high level of apoptosis
T98G glioblastoma cells [1]; T98G, listed as STS
  level of apoptosis in PME-1 depleted cells: dose dependent manner; also recorded: highly sensitive
T98G glioblastoma cells [1]; control (Scrambled siRNA transfected) T98G cells
  concentration above which STS alone induces cell death: higher than 50 nM
T98G glioblastoma cells [1]; untransfected T98G cells
  concentration above which STS alone gives limited amount of cell death: higher than 30 nM
[6]
  increase of the activity of Caspase-3/7: above 6 fold

## O=C(CO)[C@@H](O)[C@H](O)COP(=O)(O)O [Xylulose-5-phosphate]
T98G glioblastoma cells [1]; T98G
  sensitization to STS mediated apoptosis: None of these chemical PP2A activators were able to sensitize

## CCCCCCCCc1ccc(CCC(N)(CO)CO)cc1 [FTY720]
T98G glioblastoma cells [1]; T98G
  sensitization to STS mediated apoptosis: None of these chemical PP2A activators were able to sensitize

## C=C1[C@@H](O)[C@@H]2O[C@]3(CC[C@H](/C=C/[C@@H](C)[C@@H]4CC(C)=C[C@@]5(O[C@H](C[C@@](C)(O)C(=O)O)CC[C@H]5O)O4)O3)CC[C@H]2O[C@@H]1[C@@H](O)C[C@H](C)[C@H]1O[C@@]2(CCCCO2)CC[C@H]1C [OA, okadaic acid]
T98G glioblastoma cells [1]; T98G
  reversal of PME-1 siRNA and STS mediated apoptosis: sufficient to rescue cells

## CN[C@@H]1C[C@H]2O[C@@](C)([C@@H]1OC)n1c3ccccc3c3c4c(c5c6ccccc6n2c5c31)C(=O)N[C@@H]4O [UCN-01, (9S)-2,3,10,11,12,13-Hexahydro-3α-hydroxy-10α-methoxy-9-methyl-11α-methyl amino-9β,13β-epoxy-1H,9H-diindolo [1,2,3-gh:3′,2′,1′-lm] pyrrolo[3,4-j][1,7] benzodiazonin-1-one]
T98G glioblastoma cells [1]; 50 nM drug
  Potentiation % (apoptotic nuclear fragmentation): 5-10%
T98G glioblastoma cells [1]; 5 μM drug
  Potentiation % (apoptotic nuclear fragmentation): 80-90%
T98G glioblastoma cells [1]; T98G
  level of apoptosis in PME-1 depleted cells: levels even higher than STS itself

## Cbz-Val-Ala-Asp-CH2F
T98G glioblastoma cells [1]; T98G
  reversal of PME-1 siRNA and STS mediated apoptosis: complete reversal

## O=C1NC(=O)c2c1c1c3ccccc3n3c1c1c2c2ccccc2n1C1CCC3O1 [SB-218078, 9,10,11,12-Tetrahydro-9,12-epoxy-1H-diindolo [1,2,3-fg:3′,2′,1′-kl] pyrrolo[3,4-i][1,6] benzodiazocine-1,3(2H)-dione]
T98G glioblastoma cells [1]; 50 nM drug
  Potentiation % (apoptotic nuclear fragmentation): 2-5%
T98G glioblastoma cells [1]; 5 μM drug
  Potentiation % (apoptotic nuclear fragmentation): 25-30%
T98G glioblastoma cells [1]; T98G
  level of apoptosis in PME-1 depleted cells: moderate levels of apoptosis

## CC1CNCCN1S(=O)(=O)c1cccc2cnccc12 (stereo not shown) [H7]
T98G glioblastoma cells [1]; T98G
  level of apoptosis in PME-1 depleted cells: moderate levels of apoptosis

## TRAIL
T98G glioblastoma cells [1]; PME-1 siRNA versus scrambled siRNA, T98G
  synergistic effect of PME-1 depletion / benefit of combination with PME-1 siRNA: did not show the same trend

## Cn1cc(C2=C(c3cn(C4CCN(Cc5ccccn5)CC4)c4ccccc34)C(=O)NC2=O)c2ccccc21 [Enzastaurin, 3-(1-Methyl-1H-indol-3-yl)-4-(1-(1-(2-pyridinylmethyl)-4-piperidinyl)-1H-indol-3-yl)-1H-pyrrole-2,5-dione]
T98G glioblastoma cells [1]; 5 μM drug
  Potentiation % (apoptotic nuclear fragmentation): 15-20%

## O=C1NCc2c1c1c3ccccc3[nH]c1c1[nH]c3ccccc3c21 [K252c, 6,7,12,13-Tetrahydro-5H-indolo[2,3-a]pyrrolo[3,4-c] carbazol-5-one]
T98G glioblastoma cells [1]; 5 μM drug
  Potentiation % (apoptotic nuclear fragmentation): 15-20%

## Cn1c2ccccc2c2c3c(c4c5ccccc5n(CCC#N)c4c21)CNC3=O [GÖ-6976, 12-(2-Cyanoethyl)-6,7,12,13-tetrahydro-13-methyl-5-oxo-5H-indolo[2,3-a]pyrrolo[3,4-c]carbazole]
T98G glioblastoma cells [1]; 5 μM drug
  Potentiation % (apoptotic nuclear fragmentation): 15-20%
